US12398154B2, “Azaquinazoline pan-KRas inhibitors” (Mirati Therapeutics, Inc., priority 2020, dated 2025)

What was measured:
KRas WT = KRas WT (Homo sapiens, UniProt P01116); assay: biochemical;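 note: binding to KRas read as TR-FRET displacement after a one-hour room-temperature incubation, IC50 derived from percent-of-control values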
Protocol: (§1) The ability of a compound to bind to KRas was measured using a TR-FRET displacement assay. […] After a 60-minute incubation at room temperature, the reaction was measured using a BMG LABTECH CLARIO star Plus via TR-FRET. […] The POC values were fit to a 4-parameter IC50 equation and the IC50 value reported.

KRas G12C = KRas G12C (Homo sapiens, UniProt P01116, G12C); assay: biochemical;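 note: binding to KRas assessed by TR-FRET displacement after one hour incubation at room temperature, potency fitted from percent-of-control values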
Protocol: as §1

KRas G12R = KRas G12R (Homo sapiens, UniProt P01116, G12R); assay: biochemical;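 note: TR-FRET displacement assay of compound binding to KRas, read after one hour at room temperature, potency from a four-parameter fit of percent-of-control values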
Protocol: as §1

KRas G12V = KRas G12V (Homo sapiens, UniProt P01116, G12V); assay: biochemical;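 note: KRas binding measured by TR-FRET displacement at room temperature, IC50 fitted from percent of control values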
Protocol: as §1

KRas G13D = target: T1, KRas G13D (Homo sapiens, UniProt P01116, G13D); assay: KRas binding assay (TR-FRET displacement);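 note: One-hour room temperature incubation before TR-FRET reading, IC50 from a four-parameter curve fit to percent-of-control data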
T1 construct: Biotinylated KRas (corresponding to amino acids 1-169, produced at Accelegan Inc.); biotin (biotinylated); purchased Accelegan Inc
Protocol: as §1

KRas G12A = KRas G12A (Homo sapiens, UniProt P01116, G12A); assay: biochemical;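 note: binding to KRas measured by TR-FRET displacement after one hour at room temperature, IC50 from a four-parameter fit of percent-of-control values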
Protocol: as §1

KRas Q61H = target: T2, KRas Q61H (Homo sapiens, UniProt P01116, Q61H); assay: KRas binding assay (TR-FRET displacement);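 note: TR-FRET signal read after one hour at room temperature, IC50 derived by four-parameter fitting of percent-of-control values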
T2 construct: Biotinylated KRas (corresponding to amino acids 1-169, produced at Accelegan Inc.); biotin (biotinylated); purchased Accelegan Inc
Protocol: as §1

KRas G12D = KRas G12D (Homo sapiens, UniProt P01116, G12D); assay: biochemical;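 note: TR-FRET displacement binding assay on KRas, read after a one-hour incubation at room temperature, IC50 fitted from percent-of-control values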
Protocol: as §1

KRas G12S = KRas G12S (Homo sapiens, UniProt P01116, G12S); assay: biochemical;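 note: TR-FRET displacement binding to KRas, read after one hour incubation at room temperature, IC50 from four-parameter fit of percent of control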
Protocol: as §1

pERK in PSN1 cells = assay: Inhibition of KRas phosphorylation of ERK (Cisbio HTRF pERK assay); conditions: Homo sapiens, PSN1, 3 h, read-out: Inhibition (HTRF IC50) of KRas-mediated Phosphorylation of ERK, PSN1
pERK in MKN1 cells = assay: as above; conditions: Homo sapiens, MKN-1, 3 h, read-out: Inhibition (HTRF IC50) of KRas-mediated Phosphorylation of ERK, MKN1
pERK in ASPC1 cells = assay: as above; conditions: Homo sapiens, ASPC1, read-out: Inhibition (HTRF IC50) of KRas-mediated Phosphorylation of ERK, AsPC-1
Protocol: To harvest cells from flask using 0.05% Trypsin/EDTA solution. Add 10 mL of media to stop trypsinizing. Pipette the cells into a conical bottom 50 mL centrifuge tube and centrifuge 5 min×1000 rpm. • 2. Re-suspend the cell pellet in media, take a cell count, and then adjust the cell density using fresh media. • 3. Seed 6,000 cells into cell culture plate with 50 μL media. […] Incubate cell plate overnight in a 37° C., 5% CO2 incubator. • Compound titrations • 1. Use Tecan to complete the compound addition. Compounds start from 10 uM top, 3-fold dilution, and 10 doses. The final DMSO concentration is 0.8%. Dispensed 0.2 uM Trametinib as Min control. • 2. Incubate cell plate for 3 hrs in the incubator. • Detection with cisbio pERK HTRF kit • 1. […] At the end of the compound treatment, flick-off the media. • 3. Add 35 μL of lysis buffer per well using a Multidrop Combi. Then place on a plate agitator shaking at 300 rpm at 4° C. for 40 mins. • 4. Make up the HTRF antibody buffer. For each assay plate, mix 50 μL of d2-conjugate antibody with 950 μL of detection buffer. Similarly, mix 50 μL of Cryptate antibody with 950 μL of detection buffer. Then mix the two diluted antibodies together. • 5. Dispense 3.4 μL the antibody buffer to wells of an empty assay plate. Seal the plate and centrifuge plate 30 sec×1000 rpm. • 6. At the end of the 4° C. lysis, centrifuge the lysate plates 3 mins×1500 rpm. • 7. Use the Bravo to transfer 13.6 μL of lysate from cell culture plate to assay plate.
Then incubate assay plate for 2 hrs at room temperature. […] At the end of incubation, read plate on the Envision after centrifuging plate 30 sec× • 1000 rpm.

pERK in H727 cells = assay: as above; conditions: Homo sapiens, NCI-H727, read-out: Inhibition (HTRF IC50) of KRas-mediated Phosphorylation of ERK, H727
pERK in HCT116 cells = assay: as above; conditions: Homo sapiens, HCT-116, read-out: Inhibition (HTRF IC50) of KRas-mediated Phosphorylation of ERK, HCT116

KRas G12A, sequence (P01116 1-169 isoform P01116-2 G12A): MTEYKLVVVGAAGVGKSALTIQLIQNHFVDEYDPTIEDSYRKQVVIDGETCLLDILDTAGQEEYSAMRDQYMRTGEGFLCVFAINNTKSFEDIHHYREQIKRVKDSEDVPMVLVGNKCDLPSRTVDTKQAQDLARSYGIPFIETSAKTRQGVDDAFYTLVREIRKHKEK
T1 sequence (P01116 1-169 isoform P01116-2 G13D): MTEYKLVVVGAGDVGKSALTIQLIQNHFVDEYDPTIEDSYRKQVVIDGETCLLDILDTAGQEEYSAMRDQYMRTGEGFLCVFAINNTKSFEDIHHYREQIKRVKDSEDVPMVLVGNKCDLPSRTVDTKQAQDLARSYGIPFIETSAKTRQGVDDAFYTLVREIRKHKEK
KRas G12D, sequence (P01116 1-169 isoform P01116-2 G12D): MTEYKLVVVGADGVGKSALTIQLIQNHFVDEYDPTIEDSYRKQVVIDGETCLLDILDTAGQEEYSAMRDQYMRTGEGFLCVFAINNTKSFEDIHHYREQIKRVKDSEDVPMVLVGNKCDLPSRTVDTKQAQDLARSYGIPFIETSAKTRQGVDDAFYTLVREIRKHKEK
KRas WT, sequence (P01116 1-169 isoform P01116-2): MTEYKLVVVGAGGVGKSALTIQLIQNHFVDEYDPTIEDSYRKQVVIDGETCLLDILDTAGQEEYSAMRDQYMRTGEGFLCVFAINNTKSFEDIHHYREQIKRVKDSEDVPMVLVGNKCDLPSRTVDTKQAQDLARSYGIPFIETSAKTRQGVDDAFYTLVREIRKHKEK
KRas G12V, sequence (P01116 1-169 isoform P01116-2 G12V): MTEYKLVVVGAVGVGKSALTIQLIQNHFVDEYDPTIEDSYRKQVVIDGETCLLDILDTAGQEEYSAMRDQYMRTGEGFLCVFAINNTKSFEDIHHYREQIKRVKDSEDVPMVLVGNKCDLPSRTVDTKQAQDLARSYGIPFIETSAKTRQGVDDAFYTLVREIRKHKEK
KRas G12S, sequence (P01116 1-169 isoform P01116-2 G12S): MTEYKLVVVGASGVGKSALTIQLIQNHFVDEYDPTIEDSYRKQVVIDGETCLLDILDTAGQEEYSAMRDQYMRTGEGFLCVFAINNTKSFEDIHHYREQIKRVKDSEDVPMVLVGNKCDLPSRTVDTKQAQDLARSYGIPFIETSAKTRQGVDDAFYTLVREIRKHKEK
KRas G12C, sequence (P01116 1-169 isoform P01116-2 G12C): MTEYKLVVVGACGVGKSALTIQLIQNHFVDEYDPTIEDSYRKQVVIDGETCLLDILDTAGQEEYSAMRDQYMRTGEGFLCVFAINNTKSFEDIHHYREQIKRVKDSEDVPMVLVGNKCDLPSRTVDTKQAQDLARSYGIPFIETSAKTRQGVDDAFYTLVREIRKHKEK
KRas G12R, sequence (P01116 1-169 isoform P01116-2 G12R): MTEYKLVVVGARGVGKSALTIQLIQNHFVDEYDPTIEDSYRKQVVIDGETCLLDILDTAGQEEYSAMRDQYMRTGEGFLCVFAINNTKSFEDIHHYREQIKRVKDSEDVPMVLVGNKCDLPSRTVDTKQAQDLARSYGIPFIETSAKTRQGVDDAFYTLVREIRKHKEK
T2 sequence (P01116 1-169 isoform P01116-2 Q61H): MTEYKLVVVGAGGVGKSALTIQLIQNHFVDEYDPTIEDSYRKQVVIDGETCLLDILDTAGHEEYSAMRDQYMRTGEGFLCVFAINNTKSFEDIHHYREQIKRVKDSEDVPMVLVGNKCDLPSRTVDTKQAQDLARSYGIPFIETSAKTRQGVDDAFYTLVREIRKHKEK

Row | Structure (SMILES) | IC50 (KRas WT) [nM] | IC50 (KRas G12C) [nM] | IC50 (KRas G12R) [nM] | IC50 (KRas G12V) [nM] | IC50 (KRas G13D) [nM] | IC50 (KRas G12A) [nM] | IC50 (KRas Q61H) [nM] | IC50 (KRas G12D) [nM] | IC50 (KRas G12S) [nM] | IC50 (pERK in PSN1 cells) [µM] | IC50 (pERK in MKN1 cells) [nM] | IC50 (pERK in ASPC1 cells) [nM] | IC50 (pERK in H727 cells) [nM] | IC50 (pERK in HCT116 cells) [nM]
1 | CCc1c(F)ccc2cc(O)cc(-c3ncc4c(N5CCCCC5)nc(OC[C@@H]5C[C@@H](O)CN5C)nc4c3F)c12 [Example 6] | 22 | 18 | 14 | 19 | 21 | 16 | 23 | 29 | 20 |  |  |  |  | 
2 | CC1(O)CCCN(c2nc(OCC34CCCN3CCC4)nc3c(F)c(-c4cccc5cccc(F)c45)ncc23)C1 (centres unmarked) [Example 17, 1-(8-fluoro-7-(8-fluoronaphthalen-1-yl)-2-((hexahydro-1H-pyrrolizin-7a-yl)methoxy)pyrido[4,3-d]pyrimidin-4-yl)-3-methylpiperidin-3-ol] | 956 | 1190 | 2230 | 1490 | 925 | 961 | 1860 | 746 | 921 |  |  |  |  | 
3 | Fc1c(-c2cccc3cccc(F)c23)ncc2c(N3C[C@@H]4CC[C@@H](C4)C3)nc(OCC34CCCN3CCC4)nc12 [Example 18, 4-((1R,5S)-3-azabicyclo[3.2.1]octan-3-yl)-8-fluoro-7-(8-fluoronaphthalen-1-yl)-2-((hexahydro-1H-pyrrolizin-7a-yl)methoxy)pyrido[4,3-d]pyrimidine] | 6810 | 8790 | 6780 | 4450 | 9370 | 7540 | 13200 | 24000 | 4980 |  |  |  |  | 
4 | Fc1c(-c2cccc3cccc(F)c23)ncc2c(N3CCCCC3)nc(OCC34CCCN3CCC4)nc12 [Example 21, 8-fluoro-7-(8-fluoronaphthalen-1-yl)-2-((hexahydro-1H-pyrrolizin-7a-yl)methoxy)-4-(piperidin-1-yl)pyrido[4,3-d]pyrimidine] | 11400 | 12700 | 10700 | 9730 | 12600 | 12600 | 19400 | 14800 | 18800 |  |  |  |  | 
5 | O=C1CC(CNc2nc(OCC34CCCN3CCC4)nc3c(F)c(-c4cccc5cccc(F)c45)ncc23)CN1 (centres unmarked) [Example 29, 4-(((8-fluoro-7-(8-fluoronaphthalen-1-yl)-2-((hexahydro-1H-pyrrolizin-7a-yl)methoxy)pyrido[4,3-d]pyrimidin-4-yl)amino)methyl)pyrrolidin-2-one] | 5840 | 4320 | 4380 | 1960 | 8190 | 6200 | 13900 | 20500 | 3110 |  |  |  |  | 
6 | Fc1c(-c2cccc3cccc(F)c23)ncc2c(N3CCCC(c4nc[nH]n4)C3)nc(OCC34CCCN3CCC4)nc12 (centres unmarked) [Example 30, 4-(3-(1H-1,2,4-triazol-3-yl)piperidin-1-yl)-8-fluoro-7-(8-fluoronaphthalen-1-yl)-2-((hexahydro-1H-pyrrolizin-7a-yl)methoxy)pyrido[4,3-d]pyrimidine] | 1740 | 1290 | 1270 | 800 | 2000 | 1760 | 2900 | 209 | 1450 |  |  |  |  | 
7 | CC1(CNc2nc(OCC34CCCN3CCC4)nc3c(F)c(-c4cccc5cccc(F)c45)ncc23)CNC(=O)C1 (centres unmarked) [Example 35, 4-(((8-fluoro-7-(8-fluoronaphthalen-1-yl)-2-((hexahydro-1H-pyrrolizin-7a-yl)methoxy)pyrido[4,3-d]pyrimidin-4-yl)amino)methyl)-4-methylpyrrolidin-2-one] |  |  | 1610 | 2520 | 1660 |  | 4010 | 12100 |  |  |  |  |  | 
8 | O=C1CCC2(CCCN(c3nc(OCC45CCCN4CCC5)nc4c(F)c(-c5cccc6cccc(F)c56)ncc34)C2)C1 (centres unmarked) [Example 46, 7-(8-fluoro-7-(8-fluoronaphthalen-1-yl)-2-((hexahydro-1H-pyrrolizin-7a-yl)methoxy)pyrido[4,3-d]pyrimidin-4-yl)-7-azaspiro[4.5]decan-2-one] |  |  | 22500 | 24000 | 8790 |  | 18500 | 14100 |  |  |  |  |  | 
9 | Fc1c(-c2cccc3cccc(F)c23)ncc2c(N3CCCC4(CCC(F)C4)C3)nc(OCC34CCCN3CCC4)nc12 (centres unmarked) [Example 48, 8-fluoro-4-(2-fluoro-7-azaspiro[4.5]decan-7-yl)-7-(8-fluoronaphthalen-1-yl)-2-((hexahydro-1H-pyrrolizin-7a-yl)methoxy)pyrido[4,3-d]pyrimidine] |  |  | 24100 | 20400 | 16000 |  | 19900 | 18400 |  |  |  |  |  | 
10 | CCc1c(F)ccc2cc(O)cc(-c3ncc4c(NCc5c[nH]c6ncccc56)nc(OC[C@@]56CCCN5C[C@H](F)C6)nc4c3F)c12 [Example 62, 4-(4-(((1H-pyrrolo[2,3-b]pyridin-3-yl)methyl)amino)-8-fluoro-2-(((2R,7aS)-2-fluorohexahydro-1H-pyrrolizin-7a-yl)methoxy)pyrido[4,3-d]pyrimidin-7-yl)-5-ethyl-6-fluoronaphthalen-2-ol] |  |  | ≤ 2 | ≤ 2 | 3 |  | ≤ 2 | 3 |  |  |  |  |  | 
11 | CCc1c(F)ccc2cc(O)cc(-c3ncc4c(NCc5n[nH]cc5C)nc(OC[C@@]56CCCN5C[C@H](F)C6)nc4c3F)c12 [Example 161, 5-ethyl-6-fluoro-4-(8-fluoro-2-(((2R,7aS)-2-fluorohexahydro-1H-pyrrolizin-7a-yl)methoxy)-4-(((4-methyl-1H-pyrmzol-3-yl)methyl)amino)pyrido[4,3-d]pyrimidin-7-yl)naphthalen-2-ol] | 20 | 7 | 9 | 7 | 16 |  | 17 | 68 | 15 |  |  |  |  | 
12 | CCc1c(F)ccc2cc(O)cc(-c3ncc4c(N5CCC[C@]6(CC(=O)N6)C5)nc(OCC5(CN6CCCC6)CC5)nc4c3F)c12 [Example 319, (S)-6-(7-(8-ethyl-7-fluoro-3-hydroxynaphthalen-1-yl)-8-fluoro-2-((1-(pyrrolidin-1-ylmethyl)cyclopropyl)methoxy)pyrido[4,3-d]pyrimidin-4-yl)-1,6-diazaspiro[3.5]nonan-2-one] | ≤ 2 | ≤ 2 | ≤ 2 | ≤ 2 |  | ≤ 2 |  | ≤ 2 | ≤ 2 | ≥ 10 | 120 | 433 | 808 | 6360
13 | CCc1c(F)ccc2cc(O)cc(-c3ncc4c(N5CCC[C@]6(C5)NC(=O)NC6=O)nc(OCC5(CN6CCCC6)CC5)nc4c3F)c12 [Example 322, (R)-7-(7-(8-ethyl-7-fluoro-3-hydroxynaphthalen-1-yl)-8-fluoro-2-((1-(pyrrolidin-1-ylmethyl)cyclopropyl)methoxy)pyrido[4,3-d]pyrimidin-4-yl)-1,3,7-triazaspiro[4.5]decane-2,4-dione] | ≤ 2 | ≤ 2 | ≤ 2 | ≤ 2 |  |  |  | ≤ 2 |  | 9.09 | 32 | 484 | 255 | 300
14 | C#Cc1c(F)ccc2cc(O)cc(-c3ncc4c(N5CC6C(=O)NC(=O)C6C5)nc(OC[C@@]56CCCN5C[C@H](F)C6)nc4c3F)c12 (stereo partly drawn) [Example 389, 5-(7-(8-ethynyl-7-fluoro-3-hydroxynaphthalen-1-yl)-8-fluoro-2-(((2R,7aS)-2-fluorohexahydro-1H-pyrrolizin-7a-yl)methoxy)pyrido[4,3-d]pyrimidin-4-yl)tetrahydropyrrolo[3,4-c]pyrrole-1,3(2H,3aH)-dione] | ≤ 2 | ≤ 2 | 3 | ≤ 2 |  | ≤ 2 |  | ≤ 2 | ≤ 2 | ≥ 10 | 95 | 268 | 970 | 1090
